Patent US20200316087A1, “NOVEL COMBINATION THERAPY FOR ANXIETY DISORDERS, EPILEPSY, AND PAIN” (priority 2017, published 2020)

Assays:
[1] = system: electroshock-induced seizures; test: Mouse electroshock-induced seizure model; assay type: in vivo; details: mice; for Electroshock to Criteria: MED producing maximal protection (0% seizures); for Electroshock (minimal effective dose, MED): lowest dose with statistically significant protection vs vehicle
Procedure: This assay detects effects of compounds that produce generalized seizures and those that dampen seizure spread. Male, CD1 mice (Taconic Farms) were studied at weights of 21-32 g. Mice=10/dose) were used with Wahlquist Model H stimulator with 0.2 sec stimulation with corneal electrodes. […] Mice were euthanized immediately following the test. Tonic extension was used as the primary endpoint.
(§1) For the in vivo assays, minimal effective doses (MED) were calculated in mg/kg. MED was defined as the lowest dose administered that produced statistically significant protection compared to vehicle control in the anticonvulsant assays. The MED, or minimal toxic dose (MTD) for motor impairment, was the minimal dose required to produce statistically-significant impairment in motor performance. Doses tested are shown in the figures and tables and are generally dosed in ½ log increments. The protective index (PT) was calculated at the MTD/MED.

PTZ seizure threshold = test: Pentylenetetrazole (PTZ, i.v.)-induced seizure threshold; assay type: in vivo, rats; details: for PTZ Threshold to Criteria: MED for producing ≥2× PTZ seizure threshold at baseline; for PTZ Threshold Poteny (MED): lowest dose with statistically significant effect, PTZ i.v.; for PTZ Threshold Poteny (MED) / effect on dose of PTZ required to induce convulsions: rats; for effect on dose of PTZ required to induce convulsions: PTZ i.v. infusion, pretreatment 30 min
Procedure: Male […] Sprague-Dawley rats (Indianapolis, Ind.) were randomly assigned to treatment groups and dosed with vehicle (vehicle=1% carboxymethyl cellulose) with diazepam (0.1, 0.3, or 1 mg/kg) or test compound (3, 10, 30, or 60 mg/kg) 30 minutes prior to testing. Rats were placed in a restrainer and a winged infusion needle was inserted into the lateral tail vein. Intravenous infusion with 10 mg/ml PTZ at a rate of 0.5 ml/min was initiated until a clonic convulsion occurred, and the time to clonic convulsion was recorded in sec or a maximum of 4 min was recorded. Following infusion, rats are euthanized. The dose of PTZ required to elicit a clonic convulsion was calculated using the infusion rate, concentration of PTZ, time to clonic convulsion, and animal weight.

[2] = system: seizures in amygdala kindled rats; test: Basolateral amygdala kindling; assay type: in vivo; details: for After-Discharge Duration to Criteria: MED for producing after-discharge duration ≤30 sec; for After-Discharge Threshold to Criteria: MED for producing after-discharge threshold ≥3; for Seizure Severity to Criteria: MED for producing seizure severity score ≤2; for After-Discharge Duration Potency (MED) / After-Discharge Threshold Potency (MED) / Seizure Severity Poteny (MED) / effect on adjusted after-discharge threshold (ADT) / effect on after-discharge duration (ADD) / effect on seizure severity score / kindling measures / Seizure free scores (seizure severity=0): amygdala kindled rats; for Seizure free scores (seizure severity=0): groups of 8
Procedure: Seizure kindling models evaluate effects of drugs on the sensitization of the nervous system to seizure induction. In this test, drugs were evaluated for their ability to impact seizure parameters in rats that were fully kindled by daily electrical stimulation of their amygdala. Valproic acid was used as a positive control. Experiments were conducted using the general procedures of Zwart et al. (J. Pharmacol. Exp. Ther., 2014, 351:124-133). A bipolar electrode for electrical stimulation and EEG recording was stereotaxically implanted into one hemisphere of the basolateral amygdala (AP −2.2, ML −4.8, DV −8.5 mm, relative to bregma) of male Wistar rats. After post-operative recovery, electrical kindling begins, where a subthreshold constant current (400 μA, 1 ms, monophasic square-wave pulses, 60 Hz for 1 sec) is given once a day Monday-Friday for about 4-6 weeks until a rat is fully kindled. A fully kindled rat has experienced 10 consecutive stage 5 seizures or 10 of its last 12 were stage 5 according to the Racine Scale.
Twelve fully kindled rats were assigned to this study, and eight rats were selected and randomized to initial compound treatment groups from baseline after discharge threshold (ADT), seizure severity score, and after discharge duration (ADD). […] On test day, rats were dosed 30 min prior to beginning stimulation. After the pre-treatment, rats were stimulated using an ascending staircase sequence beginning at 10 μA and increasing in log unit steps of 10, 16, 25, 40, 65, 100, 160, 250, and 400 μA. Animals were stimulated until they were assigned a Seizure Severity Score for a visually observably seizure or they reached the 400 μA threshold limit. ADD was determined following testing. ADT was the current that induced a seizure; measurements were scale-adjusted to capture the stimulation scale change required to observe a seizure from the previous baseline to the ADT scored on test day. […] The average scale adjusted ADT was approximately 0.63 μA in vehicle treated rats.
Racine score of behavioral response to stimulation: 0=no behavioral response; 1=immobility, staring and/or facial clonus; 2=head nodding, jaw clonus, and/or tongue protrusion; 3=unilateral forelimb clonus; 4=bilateral forelimb clonus and/or rearing; 5=bilateral forelimb clonus with rearing and loss of balance.
After-Discharge Duration (ADD) is the duration of the first after-discharge.
ADT, ADD, and severity scores were analyzed by ANOVA. Seizure severity data was also analyzed by the nonparametric Skillings-Mack test, a generalization of the Friedman test for one-way repeated measures designs. Posthoc tests when reported were either by Dunnett's method (seizure severity) or using Wilcoxon sign rank tests (ADT and ADD). Valproic acid, used as a positive control was not used in ANOVA calculations.

[3] = Rat inverted screen test (motor impairment); details: male, Sprague-Dawley, rat, in vivo
Description: (§2) The motor effects of Diazepam and KRM-II-81 were studied on the inverted screen. The inverted screen test is used to measure whether or not a test compound induces muscle relaxation. When a test subject is placed on a wire screen which is then inverted, the reaction is to climb to the opposite side so they are no longer hanging upside down.
(§3) Male, Sprague Dawley rats (Harlan Sprague Dawley, Indianapolis, Ind.) were used and weighed 90-110 g when evaluated in experiments. […] Rats were placed onto the top of a wire screen, which was then inverted so that the rats were hanging upside down.
(§4) Male Sprague-Dawley rats (n=5) were dosed i.p. (vehicle=1% carboxymethyl cellulose) with diazepam (3, 10, or 30 mg/kg), KRM-II-81 (10, 30, or 60 mg/kg) or HZ-166 (30 mg/kg) 30 minutes prior to testing. Rats were placed onto the top of a wire screen, which was then inverted so that the rats were hanging upside down. […] Results were analyzed using ANOVA (Dunnett's test: *P<0.05).
as §1

[4] = system: motor performance on an inverted screen; test: Rat inverted screen test (motor impairment); details: rats
Description: as §2, §3, §4, §1

[5] = system: immobility in forced-swim test; test: Forced-swim assay; assay type: in vivo, mice; details: male NIH Swiss mice, i.p., 30 min prior
Procedure: Male NIH Swiss mice (Envigo, Indianapolis, Ind.) were studied. Mice were placed in clear plastic cylinders (diameter: 10 cm; height: 25 cm) filled with 6 cm of water (22-25° C.) for six min. […] The duration of immobility during the last four min of the six min test period was scored. A mouse was recorded as immobile when floating motionless or making only those movements necessary to keep its head above water.

SMILES	Electroshock to Criteria [1] [mg/kg]	Electroshock (minimal effective dose, MED) [1] [mg/kg]	protection against electroshock-induced seizures [1]	PTZ Threshold to Criteria (PTZ seizure threshold) [mg/kg]	PTZ Threshold Poteny (MED) (PTZ seizure threshold) [mg/kg]	effect on dose of PTZ required to induce convulsions (PTZ seizure threshold)	After-Discharge Duration to Criteria [2] [mg/kg]	After-Discharge Threshold to Criteria [2] [mg/kg]	Seizure Severity to Criteria [2] [mg/kg]	After-Discharge Duration Potency (MED) [2] [mg/kg]	After-Discharge Threshold Potency (MED) [2] [mg/kg]	Seizure Severity Poteny (MED) [2] [mg/kg]	effect on adjusted after-discharge threshold (ADT) [2]	effect on after-discharge duration (ADD) [2]	effect on seizure severity score / kindling measures [2]	Seizure free scores (seizure severity=0) [2]	immobility in forced-swim assay [5]	further results
C#Cc1ccc2c(c1)C(c1ccccn1)=NCc1c(-c3cnco3)ncn1-2 [KRM-II-81, 5-(8-ethynyl-6-(pyridin-2-yl)-4H-benzo[f]imidazo[1,5-a][1,4]diazepin-3-yl)oxazole]	30	10	fully prevented	30	10	increased the dose of PTZ required to induce convulsions	10	10	10	10	10	10	significantly increased	significant decreases	most efficacious and potent	7/8	moderate, dose-dependent decrease in immobility	dose of PTZ required to induce convulsions (PTZ seizure threshold; pretreated with 10 mg/kg of KRM-II-81, vehicle baseline 35.1±1.2 mg/kg): 71 mg/kg; ED50 at 30 min ([3]; ip): 121 mg/kg; muscle relaxation on inverted screen (result in words) ([4]; i.p., 30 min prior, KRM-II-81 10-60 mg/kg, HZ-166 30 mg/kg): Neither HZ-166 nor KRM-II-81 induced significant muscle relaxation; dose at which signs of muscle relaxation began to appear ([4]; i.p., inverted screen): 60 mg/kg
C#Cc1ccc2c(c1)C(c1ccccc1)=NCc1c(-c3cnco3)ncn1-2 [KRM-II-82, 5-(8-ethynyl-6-phenyl-4H-benzo[f]imidazo[1,5-a][1,4]diazepin-3-yl)oxazole]	30	30	fully prevented	30	10	increased the dose of PTZ required to induce convulsions	>30	30	>30	>30	10	10	significantly increased	trend for a significant effect	trend toward efficacy	1/8	significantly decreased immobility time	MTD at 60 seconds ([3]; intraperitoneal): 150 mg/kg; effect on motor performance ([4]; up to 30 mg/kg, inverted screen): without significant effect on motor performance
